What was measured:
[1] = test system: antibodies raised against these cyclic nucleotides (3',5'-cyclic AMP and 3',5'-cyclic GMP); assay: Binding of selenocysteine conjugates to antibodies raised against the cyclic nucleotides; conditions: qualitative
[2] = test system: Antiserum (raised against cyclic GMP-2'-succinyl-BSA); assay: Saturation analysis of cyclic GMP: binding of Se-methyl-L-selenocysteine-75Se conjugate of 2'-O-succinyl cyclic GMP to antiserum and displacement by cyclic GMP; conditions: 0.59 picomoles ligand, pH 7.5, 2°-4° C., 3 hours
Procedure: (§1) Standard solutions of cyclic GMP containing 5, 10, 20, 40, 80 and 16,000 picomoles in 100μl of 50mmol tris/4mmol EDTA buffer, pH 7.5 were pipetted into assay tubes maintained at 2°-4° C.; the concentration of 16,000 picomoles/100μl was for determination of `non-specific binding`. 100μl of buffer was also added to a tube for determination of `zero dose` counts. To each tube was added Se-methyl-L-selenocysteine-^75 Se conjugate of 2' -O-succinyl cyclic GMP (0.59 picomoles; specific activity ca 16.1Ci/mmol) in 50μl of buffer. Antiserum (raised against cyclic GMP-2'-succinyl-BSA) in 50μl of buffer was then added to all tubes. The tubes were briefly vortex mixed and incubated at 2°-4° C. for 3 hours. 1ml of aqueous ammonium sulphate solution (60% saturated) at 2°-4° C. was added to all tubes which, after mixing, were kept at 2°-4° C. for 5 minutes and then centrifuged.
After decantation of the supernate and removal of adhering liquid the precipitates were counted in a gamma counter. 0.59 picomoles of the Se-methyl-L-selenocysteine-^75 Se conjugate of 2' -O-succinyl cyclic GMP in 50μl of buffer was also counted to give `total` counts.
(§2) Results are expressed in terms of […]

[3] = test system: Antiserum (raised against cyclic GMP-2'-succinyl-BSA); assay: Saturation analysis of cyclic GMP: binding of 8-methylseleno-cyclic GMP-75Se to antiserum and displacement by cyclic GMP; conditions: for Percentage of 75Se-labelled cyclic GMP bound: 0.25 picomoles ligand, pH 7.5, 2°-4° C., 3 hours
Procedure: as §1, with “0.25, 0.5, 1.0, 2, 4, 8” for “5, 10, 20, 40, 80”, “7.5,” for “7.5”, “8-methylseleno-cyclic GMP-^75” for “Se-methyl-L-selenocysteine-^75”, “(0.25 picomoles,” for “conjugate of 2' -O-succinyl cyclic GMP (0.59 picomoles;”, “24Ci/mmol)” for “16.1Ci/mmol)”, “centrifuged. After decantation of the supernate and removal of adhering liquid the precipitates were counted in a gamma counter. 0.25 picomoles of 8-methylseleno-cyclic GMP-^75 Se (specific activity ca 24Ci/mmol) in 50μl of buffer was also counted to give `total` counts.” for “centrifuged.”
as §2

[4] = test system: natural binding protein extracted from bovine muscle; assay: Saturation analysis of cyclic AMP: binding of 75Se-labelled cyclic AMP derivative to binding protein and displacement by cyclic AMP; conditions: for binding to natural binding protein extracted from bovine muscle / displacement with 3',5'-cyclic AMP from natural binding protein: qualitative; for Percentage of 75Se-labelled cyclic AMP bound: 3 picomoles ligand, pH 7.5, 2°-4° C., 3 hours
Procedure: Standard solutions of cyclic AMP containing 1, 2, 4, 8 and 16 picomoles in 50mmol tris/4mmol EDTA buffer, pH 7.5 (50μl) were pipetted into assay tubes maintained at 2°-4° C. Buffer was also added to `total` `blank` and `zero dose` tubes (150, 150 and 50μl respectively),also at 2-4' C. To each tube was added 8-methylseleno-cyclic AMP-^75 Se (3 picomoles; specific activity ca 22Ci/mmol) in 50μl of buffer.
Binding protein (ex bovine muscle) in 100μl of buffer was then added to all tubes except the `blanks`. The tubes were vortex mixed for approximately 5 seconds and then incubated at 2°-4° C. for 3 hours. A suspension of charcoal in water (100μl) was added to all tubes except the `totals` and after vortex mixing for approximately 5 seconds the tubes were immediately centrifuged to sediment the charcoal. A 200μl sample was removed from the supernate of each tube and from the `totals` and counted in a gamma counter.
as §2

binding protein = assay: Competitive inhibition of the binding of tritiated cyclic AMP to the binding protein; set-up: species or system bovine; conditions: for % 3H-cyclic AMP bound: tritiated cyclic AMP 0.9pmol, zero-dose binding 54.5; for Cyclic AMP equivalent: unlabelled cyclic AMP giving equal reduction in binding
Procedure: Because of the low activity of the 6-methylselenopurine riboside 3',5'-cyclic monophosphate-^75 Se its binding properties were investigated by using the selenium-75 compound as a competitive inhibitor of the binding of tritiated cyclic AMP to the binding protein.
6-methylselenopurine riboside 3',5'-cyclic monophosphate-^75 Se (specific activity 6.65m Ci/mmol) was made up in tris/EDTA buffer at concentrations of 1,156 pmoles, 105pmoles and 9.6pmoles per 50μl aliquot. In the normal assay 100μl of binding protein is incubated with tritiated cyclic AMP (0.9pmol) and unlabelled cyclic AMP (standards and unknowns). Bound and free labelled cyclic AMP are separated by absorption of free cyclic AMP on charcoal and bound activity is determined by counting a sample of the supernate. To determine the potency of the selenium analogue the zero-dose binding was first determined, ie. the percentage of tritiated cylic AMP bound in the absence of unlabelled cyclic AMP or selenium analogue. This was then compared with the binding of tritiated cylic AMP in the presence of 4 different doses of selenium analogue. From the results obtained it was possible to calculate the amounts of unlabelled cyclic AMP which would give a reduction in binding equal to that caused by the selenium analogue.

C[75Se]C[C@H](NC(=O)CCC(=O)O[C@@H]1[C@@H]2OP(=O)(O)OC[C@H]2O[C@H]1n1cnc2c(=O)[nH]c(N)nc21)C(=O)O [V]
binding to antibodies raised against these cyclic nucleotides [1]: bind strongly
Percentage of 75Se-labelled cyclic GMP bound ([2]; dose of cyclic GMP 0 picomoles): 24.5%
Percentage of 75Se-labelled cyclic GMP bound ([2]; dose of cyclic GMP 5 picomoles): 17.3%
Percentage of 75Se-labelled cyclic GMP bound ([2]; dose of cyclic GMP 10 picomoles): 16.7%
Percentage of 75Se-labelled cyclic GMP bound ([2]; dose of cyclic GMP 20 picomoles): 11.8%
Percentage of 75Se-labelled cyclic GMP bound ([2]; dose of cyclic GMP 40 picomoles): 8.3%
Percentage of 75Se-labelled cyclic GMP bound ([2]; dose of cyclic GMP 80 picomoles): 6.1%

C[75Se]c1nc2c(=O)[nH]c(N)nc2n1[C@@H]1O[C@@H]2COP(=O)(O)O[C@H]2[C@H]1O [II, 8-methylselenoguanosine 3',5'-cyclic monophosphate-^75 Se]
Percentage of 75Se-labelled cyclic GMP bound ([3]; dose of cyclic GMP 0 picomoles): 45.3%
Percentage of 75Se-labelled cyclic GMP bound ([3]; dose of cyclic GMP 0.25 picomoles): 33.7%
Percentage of 75Se-labelled cyclic GMP bound ([3]; dose of cyclic GMP 0.5 picomoles): 27.8%
Percentage of 75Se-labelled cyclic GMP bound ([3]; dose of cyclic GMP 1.0 picomoles): 22.3%
Percentage of 75Se-labelled cyclic GMP bound ([3]; dose of cyclic GMP 2.0 picomoles): 14.0%
Percentage of 75Se-labelled cyclic GMP bound ([3]; dose of cyclic GMP 4.0 picomoles): 9.3%
Percentage of 75Se-labelled cyclic GMP bound ([3]; dose of cyclic GMP 8.0 picomoles): 6.5%
binding to an antibody raised against cyclic GMP-2'-O-succinyl-BSA ([3]; qualitative): shown to bind

C[75Se]C[C@H](NC(=O)CCC(=O)O[C@@H]1[C@@H]2OP(=O)(O)OC[C@H]2O[C@H]1n1cnc2c(N)ncnc21)C(=O)O [IV]
binding to antibodies raised against these cyclic nucleotides [1]: bind strongly

C[75Se]c1ncnc2c1ncn2[C@@H]1O[C@@H]2COP(=O)(O)O[C@H]2[C@H]1O [III, 6methylselenopurineriboside-3',5'-cyclic monophosphate-^75 Se]
binding to natural binding protein extracted from bovine muscle [4]: shown to bind
displacement with 3',5'-cyclic AMP from natural binding protein [4]: capable of displacement
cyclic AMP causing as much displacement of tritiated cyclic AMP (binding protein; 9.6pmoles of Se analogue): 12.2 pmol
% 3H-cyclic AMP bound (binding protein; Se analogue 9.6 pmoles/50μl): 5.06%
Cyclic AMP equivalent (binding protein; Se analogue 9.6 pmoles/50μl): 12.2 pmoles/50μl
% 3H-cyclic AMP bound (binding protein; Se analogue 105 pmoles/50μl): 0.96%
Cyclic AMP equivalent (binding protein; Se analogue 105 pmoles/50μl): 69.7 pmoles/50μl
% 3H-cyclic AMP bound (binding protein; Se analogue 1,156 pmoles/50μl): 0.42%
Cyclic AMP equivalent (binding protein; Se analogue 1,156 pmoles/50μl): 161 pmoles/50μl
binding power compared with cyclic AMP (binding protein; at the concentration employed (9.6pmoles)): very similar binding powers

C[75Se]c1nc2c(N)ncnc2n1[C@@H]1O[C@@H]2COP(=O)(O)O[C@H]2[C@H]1O [I, 8-methylselenoadenosine 3', 5'-cyclic monophosphate-^75 Se]
Percentage of 75Se-labelled cyclic AMP bound ([4]; dose of cyclic AMP 0 picomoles): 38.8%
Percentage of 75Se-labelled cyclic AMP bound ([4]; dose of cyclic AMP 1 picomole): 29.7%
Percentage of 75Se-labelled cyclic AMP bound ([4]; dose of cyclic AMP 2 picomoles): 26.7%
Percentage of 75Se-labelled cyclic AMP bound ([4]; dose of cyclic AMP 4 picomoles): 21.4%
Percentage of 75Se-labelled cyclic AMP bound ([4]; dose of cyclic AMP 8 picomoles): 16.6%
Percentage of 75Se-labelled cyclic AMP bound ([4]; dose of cyclic AMP 16 picomoles): 10.6%
binding to natural binding protein extracted from bovine muscle [4]: shown to bind
displacement with 3',5'-cyclic AMP from natural binding protein [4]: capable of displacement
